Our source for the Kd values is paper PMC1079853, “Alkane-induced expression, substrate binding profile, and immunolocalization of a cytochrome P450 encoded on the nifD excision element of Anabaena 7120” (BMC Microbiology, 2005).

This test addresses T1, CYP110 (Nostoc sp. PCC 7120 = FACHB-418, UniProt P29980).
T1 construct: recombinant, expressed in E. coli from pUC8 vector, purified soluble fraction; about 50 kDa; U38537 is the complete nifD element carrying cyp110
T1 sequence (P29980 1-459): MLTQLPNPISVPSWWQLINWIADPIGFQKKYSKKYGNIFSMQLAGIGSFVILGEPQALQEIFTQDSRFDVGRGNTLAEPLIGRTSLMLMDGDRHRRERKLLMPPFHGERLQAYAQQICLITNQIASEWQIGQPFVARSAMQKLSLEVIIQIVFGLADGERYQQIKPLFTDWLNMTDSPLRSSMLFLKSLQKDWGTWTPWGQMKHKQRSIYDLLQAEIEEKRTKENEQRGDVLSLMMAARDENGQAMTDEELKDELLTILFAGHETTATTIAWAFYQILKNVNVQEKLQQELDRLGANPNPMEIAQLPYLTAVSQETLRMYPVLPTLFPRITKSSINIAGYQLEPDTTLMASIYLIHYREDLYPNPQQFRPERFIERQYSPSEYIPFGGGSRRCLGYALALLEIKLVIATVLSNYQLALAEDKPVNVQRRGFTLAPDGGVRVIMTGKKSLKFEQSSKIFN
Put plainly: UV-visible spectral shift titration. The test is classed as binding. As to conditions: read-out: Ks. The text has this: UV-visible spectral shift titration on CYP110
Regarding `CCCCCCCCCCCCCCCC(=O)O` [Hexadecanoic Acid], the Kd was determined as 500 µM.

Regarding `CCCCCCCCCCCCCCCCCC(=O)O` [Octadecanoic Acid], the Kd stood at 3100 µM. Regarding `CCCCCCCCCCN` [Decyl Amine], the Kd turned out to be 41 µM. Take `CCCCCCCN` [Heptyl Amine]: the Kd amounted to 102 µM. In the case of `CCCCC/C=C\C/C=C\C/C=C\C/C=C\CCCC(=O)O` [Arachidonic Acid], the Kd came to 51 µM. Turning to `CCCCCCCCCCCCCCCCC(=O)O` [Heptadecanoic Acid], the Kd worked out at 1100 µM. Then `CCCCCCCCCN` [Nonyl Amine], with 62 µM. Consider `CCCCCCN` [Hexyl Amine], for which the Kd worked out at 320 µM.

Regarding `CCCCCCCCN` [Ocytl Amine], the Kd amounted to 81 µM.

Turning to `CCCCCCCCCCCCC(=O)O` [Tridecanoic Acid], the Kd was found to be 850 µM. The figure for `CCCCCC=CCC=CCCCCCCCC(=O)O` [9,12-Octadecadienoic Acid] is 720 µM; for `CCCCCCCCCCCCCC(=O)O` [Tetradecanoic Acid] it is 91 µM; for `CC/C=C\C/C=C\C/C=C\CCCCCCCC(=O)O` [9,12,15-Octadecatrienoic Acid] it is 62 µM. With `CCCCCCCCCCCC(=O)NC` [N-methyl Lauryl Amide], the Kd turned out to be 2560 µM. Consider `CCCCCCCCCCCCN` [Dodecyl Amine], for which the Kd is 12 µM. Turning to `CCCCCCCCCCCCCCC(=O)O` [Pentadecanoic Acid], the Kd was determined as 210 µM. With `CCCCCN` [Pentyl Amine], the Kd is 540 µM.

With `CCCCCCCCCCCC(=O)O` [Dodecanoic Acid], the Kd is 1900 µM. For the molecule `NCCCCCCCCCCCC(=O)O` [12-Aminododecanoic Acid], the Kd was found to be 416 µM.

For the molecule `CCCCCCCCCCCC(N)=O` [Lauryl Amide], the Kd worked out at 2210 µM.
